Measured values reported in patent publication US20220332799A1, “HERV INHIBITORS FOR USE IN TREATING TAUOPATHIES” (Deutsches Zentrum Für Neurodegenerative Erkrankungen E.V. …, priority 2019, published 2022).
Entries after “also recorded” stand apart in the source; their conditions may differ.

Tests used:
[1] = test system: MuERV Env; test: Western blot of Env maturation in donor cell lysates and EVs; type: cell-based, mouse; settings: donor cells 10 μM, 3 days, vs DMSO
Procedure: Cell lysates and EVs derived from Amprenavir-treated donor cell clone N2a NM-HA^agg s2E were analyzed for Env maturation by Western blot. Amprenavir-treated cell lysate and EVs lack the proteolytical mature Env transmembrane (TM) fragment p15E required for receptor binding. Cleaved products and degradation intermediates were detected by anti-MuLV virus antibody ABIN457298. Presumed bands representing Env precursor protein (gp85 and gp70), Pr15E or cleavage product (p15E) are indicated. • b., c. Aggregate induction in recipient N2a NM-GFP^sol cells cocultured with Amprenavir-pretreated N2a NM-HA^agg s2E donor cells or (c) in recipient cells exposed to EVs derived from Amprenavir-treated donors. • d. EVs from donor clone N2a NM-HA^agg s2E were incubated with increasing concentrations of anti-Env antibody mAb83A25 for 1 h and added to recipient N2a NMGFP^sol cells for 16 h. • e, g. Donor clone N2a NM-HA^agg s2E was transfected with three individual siRNAs (SEQ ID NO 14-19) against endogenous Env (e) or (SEQ ID NO 20-25) against Gag (g). […] MuERV Env and Gag protein levels were analyzed by Western blot. • l. […] Recipient N2a NM-GFP^sol cells were transfected with two siRNAs against XPR1 (SEQ ID NO 26-29), siRNA against mCat-1 (SEQ ID NO 30 and 31) or with non-silencing siRNA control. mRNA knock-down was assessed 48 h post siRNA transfection by quantitative PCR. […]

[2] = test system: MuERV env and gag mRNA; test: qRT-PCR of MuERV env and gag transcripts in donor clone s2E; type: cell-based, mouse; settings: s2E P1 donors, Aza 200 nM or Dec 100 nM, then 5 days without drug, vs DMSO
Procedure: To inhibit methyltransferases, s2E P1 donor cells were treated for three days with methyltransferase inhibitors 5-Azacytidine (Aza) 200 nM, Decitabine (Dec) 100 nM or DMSO as solvent control. Subsequently, the cells were cultured in the absence of the drugs for 5 days. Pre-treated donor cells were subsequently cocultured with recipient cells as described above to monitor aggregate induction efficiency in recipient N2a NM-GFP^sol cells. Cell lysates of donor cells were also analyzed for MuERV Env and Gag expression levels by western blot. To increase DNA methylation, the s2E donor clone (P21) was treated with methyl group donors L-methionine (L-M) 80 mM, Betaine (B) 80 mM, Choline chloride (CC) 20 mM or medium control for 6 days. MuERV Env and Gag protein levels were analyzed by western blot. Subsequently, cells were cocultured with recipient cells for 16 h. The percentage of aggregate containing recipient cells was compared to the percentage of aggregate bearing recipients cocultured with solvent-treated donors. […]
Total RNA from cell pellets or brain samples was isolated using the RNeasy Mini Kit or RNeasy Lipid Tissue Mini Kit (Qiagen). RNA concentration and quality were determined using the Agilent 2100 Bioanalyzer System. For a 20 μl reaction, 1 μg RNAs were reversely transcribed to cDNA using the iScript™ cDNA Synthesis Kit (Bio-Rad). For a 20 μl qRT-PCR reaction, 2 μl of synthesized cDNA was used as template. For qRT-PCR of murine env AA037244.2 and gag AID54952, custom designed TaqMan probes were used (Thermo Fisher Scientific). Pre-designed TaqMan probes by the company for murine pan-env, xpr1, mcat-1 and gapdh as housekeeping control and TaqMan™ Gene Expression Master Mix (Thermo Fisher Scientific) were used. qRT-PCR using TaqMan probes was performed as described in the manufacturer's instruction. For qRT-PCR analyses of HERV family members, primers were designed using the corresponding cDNA sequences (cf. SEQ ID NOs. 73-92). PowerUP SYBR™ Green Master Mix (Thermo Fisher Scientific) was mixed with different cDNAs and corresponding primers as indicated in the instruction. The fast cycling mode was used for all primers.

CC(C)CN(C[C@@H](O)[C@H](Cc1ccccc1)NC(=O)O[C@H]1CCOC1)S(=O)(=O)c1ccc(N)cc1 [Amprenavir]
Env protein maturation to TM p15E [1]: efficiently inhibited Env protein maturation to TM p15E; also recorded: inhibits maturation of endogenous MuERV proteins, including Env

Nc1ncn([C@H]2C[C@H](O)[C@@H](CO)O2)c(=O)n1 [Decitabine, 5-aza-2′-deoxycytidine]
expression of total env and gag mRNA [2]: increased expression of total env and gag mRNA
expression of total env and gag mRNA ([2]; listed as 5-aza-2′-deoxycytidine): Increased expression of MuERV env (f), gag (h) and pan-env (g) transcripts
